From patent publication US11497694B2, “Oral care compositions” (Colgate-Palmolive Company, priority 2017, dated 2022)

Test system: bacteria
Test: Stabilizing effect of lysine on CPC-STPP / CPC-DV interaction (bacterial viability)
Assay type: cell-based
Settings: PBS 100
Description: Compositions were created to test the stabilizing effect that lysine had on the CPC and DV polymer. Mouthwashes were created according to the method of Example 1. Each sample was created with CPC and either STPP or DV. The compositions also contained varied amounts of lysine. The samples created are summarized below.

## CCO [Ethanol]
CPC-DV mouthwashes with varied lysine, pH 4.6
  Bacterial Viability at pH 4.6 (%): 11%
CPC-DV mouthwashes with varied lysine, pH 6.0
  Bacterial Viability at pH 6.0 (%): 19%
CPC-STPP mouthwashes with varied lysine
  Bacterial Viability (%): 23%
